Data published in patent US20090318385A1, “Pyrazolopyride derivative and phosphodiesterase ( pde) inhibitors containing the same as active ingredient” (priority 2006, published 2009).

Tests used:
PDE4B catalytic domain = biological target: T1, PDE4B catalytic domain (Homo sapiens, UniProt Q07343); assay: Phosphodiesterase inhibitory activity (recombinant PDE4Bcat, [3H]cAMP); type: biochemical; settings: 30° C. for 20 minutes, read-out: IC50 (μmol/L) PDE4
T1 construct: The cDNA of PDE4B catalytic domain (hereinafter abbreviated as Cat) was isolated from human RNA by RT-PCR; made in house; host or cells: Sf9 insect cells (baculovirus, Bac-to-Bac)
T1 sequence (Q07343 330-659 limits assumed): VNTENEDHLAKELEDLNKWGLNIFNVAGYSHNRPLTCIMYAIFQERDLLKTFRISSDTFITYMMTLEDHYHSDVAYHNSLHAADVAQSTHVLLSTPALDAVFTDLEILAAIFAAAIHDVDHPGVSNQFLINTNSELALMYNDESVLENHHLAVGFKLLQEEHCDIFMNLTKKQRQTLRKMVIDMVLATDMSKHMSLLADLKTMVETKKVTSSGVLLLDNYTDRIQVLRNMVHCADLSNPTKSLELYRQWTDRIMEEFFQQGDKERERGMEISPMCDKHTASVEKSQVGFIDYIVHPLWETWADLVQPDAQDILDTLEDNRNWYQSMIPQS
Description: The cDNA of PDE4B catalytic domain (hereinafter abbreviated as Cat) was isolated from human RNA by RT-PCR. The isolated cDNA fragments were inserted into Sf9 insect cells using Gateway system (product of Invitrogen Corporation) and Bac-to-Bac (registered trademark) Baculovirus Expression system (product of Invitrogen Corporation) to express a target PDE protein. The recombinant PDE4Bcat was purified from the culture supernatants or cell extracts of Sf9 cells expressing high levels of the PDE protein by ion exchange chromatography and was used for the following experiments.
A 4 mmol/L solution of each test compound was serially diluted four-fold with a 15% DMSO solution to prepare solutions with concentrations of 15 nmol/L to 4 mmol/L (the final concentrations used in the experiments were 1.5 nmol/L to 400 μmol/L). 10 μL of the prepared test compound solutions, [^3H] cAMP diluted with a buffer solution (40 mmol/L Tris-HCl (pH: 7.4), 10 mmol/L MgCl2), and 40 μL of the recombinant human PDE protein (2×10^−6 units, 1 unit is defined as the amount of PDE that breaks down 1 μmol/L of cAMP in one minute under the conditions of a pH of 7.5 and 30° C.) were added to a 96-well plate. The mixtures were reacted at 30° C. for 20 minutes. Then, the resultant mixtures were reacted at 65° C. for 2 minutes. Subsequently, […] of 1 mg/mL 5′-nucleotidase (Crotalusatrox venom, product of Sigma) was added to the mixtures, and the mixtures were reacted at 30° C. for 10 minutes. After completion of the reaction, 200 μL of a solution of Dowex (300 mg/mL Dowex 1x8-400 (product of Sigma Aldrich), 33% ethanol) was added to the mixtures, and the mixtures were shaken at 4° C. for 20 minutes. Subsequently, 200 μL of MicroScint 20 (product of Packard) was added to the mixtures, and measurement was performed using a scintillation counter (Topcount, product of Packard). IC50 values were calculated using Graph Pad Prism v3.03 (product of GraphPad Software). When 1 μmol/L>the IC50 value≧0.1 μmol/L, the results were represented by “+.” When 0.1 μmol/L>the IC50 value, the results were represented by “++.”

[1] = system: total number of leukocytes in bronchoalveolar lavage fluid after LPS inhalation; assay: LPS acute inflammation model in rats; type: in vivo; settings: Rattus norvegicus, Leukocyte, po, 3 mg/kg orally one hour before LPS inhalation, total leukocytes in BALF 3 hours after LPS inhalation, read-out: Inhibition ratio
Description: 3 mg/kg of the compounds were orally administered to rats one hour before inhalation of lipopolysaccharide (LPS) from E. coli serotype 055:B5, rats were inhalted nebulizing LPS solution (50 mL) by nebulizer for 30 minutes. Then, 3 hours after the LPS inhalation, rats were euthanized with 20% urethane (5 ml/rat, i.p.) 5 ml of physiological saline for bronchoalveolar lavage was injected into the bronchoalveolar space through the airway, and the bronchoalveolar space was washed 3 times using a 5 mL syringe. This procedure was repeated twice, and the solution was collected as bronchoalveolar lavage fluid (BALF). The collected BALF was centrifuged at 1,200 rpm and 4° C. for 10 minutes (Hirtachi; himac CR 5 DL). The sediment was re-suspended in 10 mL of a 0.1% bovine serum albumin-physiological saline, and an equivalent amount of Turk's solution was added to the suspension to stain leukocytes. The total number of leukocytes was counted under a microscope to determine the inhibition ratio. When the inhibition ratio≧60%, the results were represented by “++.” When 60%>the inhibition ratio≧30%, the results were represented by “+.”

[2] = system: histamine-induced bronchoconstriction; assay: Histamine-induced airway contraction reaction in guinea pigs; type: in vivo; settings: test compound 1 mg/kg i.v., histamine 12.5 μg/kg i.v., airflow 30 seconds after administration
Description: Guinea pigs were anesthetized with pentobarbital (30 mg/kg, i.p.). A cannula for intravenous administration, a cannula for collecting blood and measuring blood pressure, and a tracheal cannula were inserted into the left external jugular vein, right internal carotid artery, and trachea, respectively. The guinea pigs were maintained on artificial respiration under the conditions of 60 times/min and 10 mL/kg/stroke. The airflow from the side branch of the tracheal cannula was measured by a bronchospasm transducer (Ugo-Basile) and recorded on a computer via Power Lab (ADInstruments Japan). The guinea pigs were immobilized with gallamine (10 mg/kg, i.v.), and histamine was administered at 10-minute intervals (12.5 μg/kg, i.v.). After the histamine-induced bronchoconstriction was constant, one of the test compounds (1 mg/kg, i.v.) dissolved in DMSO was administered. We examined the inhibitory action of test compounds on histamine-induced bronchoconstriction 30 seconds after compounds administration. Bronchoconstriction was recorded as the value of airflow, and the results were represented by the ratio of the maximum value of the histamine-induced airflow 30 seconds after the administration to the maximum value of the airflow before the administration. When the inhibition ratio≧90%, the results were represented by “+++.” When 90%>the inhibition ratio≧70%, the results were represented by “++.” When 70%>the inhibition ratio≧30%, the results were represented by “+.”

| SMILES | IC50 (PDE4B catalytic domain) [µmol/L] | melting point | inhibition in vivo at 3 mg/kg [1] [%] | Inhibition ratio [2] |
| --- | --- | --- | --- | --- |
| COc1ccc(C(=O)Cc2c(Cl)cncc2Cl)c2c(Cl)c(C3CC3)nn12 [Example 122, 1-(3-Chloro-2-cyclopropyl-7-methoxypyrazolo[1,5-a]pyridin-4-yl)-2-(3,5-dichloropyridin-4-yl)ethanone] | < 0.1 | – | ≥ 60 | – |
| CN(C)c1ccc(C(=O)Cc2c(Cl)cncc2Cl)c2cc(C3CC3)nn12 [Example 124, 1-(2-Cyclopropyl-7-(dimethylamino)pyrazolo[1,5-a]pyridin-4-yl)-2-(3,5-dichloropyridin-4-yl)ethanone] | – | 216 to 220 °C | – | – |
| COc1ccc(C(=O)Cc2ccncc2Cl)c2cc(C(F)F)nn12 [Example 111, 2-(3-Chloropyridin-4-yl)-1-(2-(difluoromethyl)-7-methoxypyrazolo[1,5-a]pyridin-4-yl)ethanone] | – | 191 to 194 °C (dec.) | – | – |
| COc1ccc(C(=O)Cc2c(Cl)c[n+]([O-])cc2Cl)c2cc(C#N)nn12 [Example 142, 3,5-Dichloro-4-(2-(2-cyano-7-methoxypyrazolo[1,5-a]pyridin-4-yl)-2-oxoethyl)pyridine 1-oxide] | < 0.1 | – | ≥ 60 | – |
| CNc1ccc(C(=O)Cc2c(Cl)cncc2Cl)c2cc(C(F)(F)F)nn12 [Example 99, 2-(3,5-Dichloropyridin-4-yl)-1-(7-(methylamino)-2-(trifluoromethyl)pyrazolo[1,5-a]pyridin-4-yl)ethanone] | < 0.1 | 220 to 223 °C | – | – |
| CNc1ccc(C(=O)Cc2c(Cl)cncc2Cl)c2cc(C3CC3)nn12 [Example 123, 1-(2-Cyclopropyl-7-(methylamino)pyrazolo[1,5-a]pyridin-4-yl)-2-(3,5-dichloropyridin-4-yl)ethanone] | – | 196 to 200 °C | – | – |
| COc1ccc(CCc2cc[n+]([O-])cc2)c2cc(C(F)(F)F)nn12 [Example 91, 4-(2-(7-Methoxy-2-(trifluoromethyl)pyrazolo[1,5-a]pyridin-4-yl)ethyl)pyridine 1-oxide] | < 0.1 | – | ≥ 60 | – |
| COc1ccc(C(=O)Cc2ccncc2)c2cc(C3CC3)nn12 [Example 121, 1-(2-Cyclopropyl-7-methoxypyrazolo[1,5-a]pyridin-4-yl)-2-(pyridin-4-yl)ethanone] | < 0.1 | – | ≥ 60 | – |
| COc1ccc(CCc2c(Cl)cncc2Cl)c2cc(C(F)F)nn12 [Example 102, 4-(2-(3,5-Dichloropyridin-4-yl)ethyl)-2-(difluoromethyl)-7-methoxypyrazolo[1,5-a]pyridine] | – | 153 to 156 °C | – | – |
| COc1ccc(C(=O)Cc2c(Cl)c[n+]([O-])cc2Cl)c2cc(C(F)F)nn12 [Example 108, 3,5-Dichloro-4-(2-(2-(difluoromethyl)-7-methoxypyrazolo[1,5-a]pyridin-4-yl)-2-oxoethyl)pyridine 1-oxide] | < 0.1 | – | ≥ 60 | – |
| COc1ccc(CCc2c(Cl)cncc2Cl)c2cc(C(F)(F)F)nn12 [Example 95, 4-(2-(3,5-Dichloropyridin-4-yl)ethyl)-7-methoxy-2-(trifluoromethyl)pyrazolo[1,5-a]pyridine] | – | 158 to 160 °C (dec.) | – | – |
| COc1ccc(C(=O)Cc2c(Cl)cncc2Cl)c2cc(C(F)F)nn12 [Example 107, 2-(3,5-dichloropyridin-4-yl)-1-(2-(difluoromethyl)-7-methoxypyrazolo[1,5-a]pyridin-4-yl)ethanone] | – | 208 to 211 °C (dec.) | – | – |
| COc1ccc(C(=O)Cc2c(Cl)c[n+]([O-])cc2Cl)c2cc(C(F)(F)F)nn12 [Example 92, 3,5-Dichloro-4-(2-(7-methoxy-2-(trifluoromethyl)pyrazolo[1,5-a]pyridin-4-yl)-2-oxoethyl)pyridine 1-oxide] | < 0.1 | – | ≥ 60 | – |
| CN(C)c1ccc(C(=O)Cc2c(Cl)cncc2Cl)c2cc(C(F)(F)F)nn12 [Example 100, 2-(3,5-Dichloropyridin-4-yl)-1-(7-(dimethylamino)-2-(trifluoromethyl)pyrazolo[1,5-a]pyridin-4-yl)ethanone] | – | 234 to 238 °C | – | – |

Now from value to compound, other results behind:

| IC50 (PDE4B catalytic domain) [µmol/L] | melting point | SMILES | inhibition in vivo at 3 mg/kg [1] [%] | Inhibition ratio [2] |
| --- | --- | --- | --- | --- |
| < 0.1 | – | COc1ccc(C(=O)Cc2ccncc2)c2cc(C(F)(F)F)nn12 [80 (90), 1-(7-Methoxy-2-trifluoromethylpyrazolo[1,5-a]pyridin-4-yl)-2-(pyridin-4-yl)ethanone] | – | +++ (When the inhibition ratio≧90%, the results were represented by “+++.”) |
| – | 188 to 191 °C | COc1ccc(C(=O)Cc2ccncc2Cl)c2cc(C(F)(F)F)nn12 [Example 97, 2-(3-Chloropyridin-4-yl)-1-(7-methoxy-2-(trifluoromethyl)pyrazolo[1,5-a]pyridin-4-yl)ethanone] | – | – |
| < 0.1 | – | COc1ccc(C(O)Cc2c(Cl)cncc2Cl)c2cc(C(F)(F)F)nn12 (stereo not shown) [Example 87, 2-(3,5-Dichloropyridin-4-yl)-1-(7-methoxy-2-trifluoromethylpyrazolo[1,5-a]pyridin-4-yl)ethanol] | – | – |
| < 0.1 | – | COc1ccc(/C(=C/c2ccncc2)c2ccccc2)c2cc(C(F)(F)F)nn12 [Example 84, (E)-7-methoxy-4-[1-phenyl-2-(pyridin-4-yl)vinyl]-2-trifluoromethylpyrazolo[1,5-a]pyridine] | – | – |
| – | 186 to 191 °C (dec.) | COc1ccc(C(=O)Cc2ccncc2)c2cc(C(F)F)nn12 [Example 109, 1-(2-(Difluoromethyl)-7-methoxypyrazolo[1,5-a]pyridin-4-yl)-2-(pyridin-4-yl)ethanone] | – | – |
| – | 121 to 123 °C | COc1ccc(CCc2ccncc2)c2cc(C(F)F)nn12 [Example 104, 2-(Difluoromethyl)-7-methoxy-4-(2-(pyridin-4-yl)ethyl)pyrazolo[1,5-a]pyridine] | – | – |
| 0.1 to 1 | – | COc1ccc(C(O)Cc2ccncc2)c2cc(C(F)(F)F)nn12 (stereo not shown) [Example 77, 1-(7-Methoxy-2-trifluoromethylpyrazolo[1,5-a]pyridin-4-yl)-2-(pyridin-4-yl)ethanol] | – | + (When 70%>the inhibition ratio≧30%, the results were represented by “+.”) |
| < 0.1 | 157 to 161 °C (dec.) | COc1ccc(C(=O)Cc2cc[n+]([O-])cc2)c2cc(C(F)(F)F)nn12 [Example 93, 4-(2-(7-Methoxy-2-(trifluoromethyl)pyrazolo[1,5-a]pyridin-4-yl)-2-oxoethyl)pyridine 1-oxide] | ≥ 60 | – |
| < 0.1 | – | COc1ccc(C(Cc2ccncc2)c2ccccc2)c2cc(C(F)(F)F)nn12 (stereo not shown) [Example 86, 7-Methoxy-4-[1-phenyl-2-(pyridin-4-yl)ethyl]-2-trifluoromethylpyrazolo[1,5-a]pyridine] | – | – |
